# Like-named read-outs stand apart in the source and are kept apart here.
# Key:
# [1] = target: reverse transcriptase activity; conditions: read-out: EC50, concentration required to reduce the reverse transcriptase activity by 50%; cited from earlier work
# [2] = target: T1, HIV RT (Human immunodeficiency virus type 1 group M subtype B, UniProt P04585); test: Affinity of triphosphate against HIV RT; type: biochemical; conditions: read-out: affinity (K^1) against HIV RT
# T1 construct: (±)-FTC triphosphate against HIV RT is 0.2 μM
# [3] = system: human PBM cells; test: Egress of radiolabeled (±)-FTC from human PBM cells; type: in vitro ADME; conditions: 48 hours after the removal of the extracellular drug
# Procedure: (§1) Studies are conducted in duplicate. Uninfected cells (2×10^6 ml) are suspended in the appropriate medium supplemented with serum (10 ml per timepoint) and incubated at 37° C. in a 5% CO2 incubator. Radiolabeled FTC concentration is 10 μM. After pulsing the cells with the labeled compound for the desired time, the cells are thoroughly washed and then replenished with fresh medium without the antiviral drugs (0 hr). At 0, 2, 4, 6, 12, 24, and 48 hours (second incubation time), the cells are removed, and immediately extracted with 60% cold methanol/water. The extract is obtained by centrifugation and removal of the cell pellet. The extracts are lyophilized and then stored at −70° C. Prior to analysis, the material is resuspended in 250 μl of HPLC buffer and immediately analyzed.
# (§2) Either a Micromeritics or Hewlett-Packard model 1090 PHLC system is used with an anion exchange Partisil 10 SAX column (Whatman, Inc.), at a flow rate of 1 ml/min, 1 kpsi pressure, using uv detection at 262 nm.
# (§3) The mobile phase consists of:
# (§4) b. 2 mM NaH2PO4/16 mM NaOAc (pH=6.6)
# (§5) Separation method: isocratic for 5 min with A, followed by a 15 min linear gradient to 100% B, followed by a 20 min linear gradient to 100% C, followed by 10 min linear gradient to 100% D, followed by 30 min isocratic with 100% D.
# [4] = as above; type: in vitro ADME; conditions: human PBM cells, after 24 hour pulse with 10 μM; read-out: intracellular half-life (converted)
# Procedure: as §1, §2, §3, §4, §5
# [5] = system: HIV-1 (strain LAV); test: microbe, parasite or virus in culture; type: cell-based
# Description: It is often desirable to screen a number of racemic mixtures of nucleosides as a preliminary step to determine which warrant further resolution into enantiomerically enriched components and evaluation of antiviral activity. The ability of nucleosides to inhibit HIV can be measured by various experimental techniques. The technique used herein, and described in detail below, measures the inhibition of viral replication in phytohemagglutinin (PHA) stimulated human peripheral blood mononuclear (PBM) cells infected with HIV-1 (strain LAV). The amount of virus produced is determined by measuring the virus-coded reverse transcriptase enzyme. The amount of enzyme produced is proportional to the amount of virus produced.
# A. Three-day-old phytohemagglutinin-stimulated PBM cells (10^6 cells/ml) from hepatitis B and HIV-1 seronegative healthy donors were infected with HIV-1 (strain LAV) at a concentration of about 100 times the 50% tissue culture infectious dose (TICD 50) per ml and cultured in the presence and absence of various concentrations of antiviral compounds.
# B. Approximately one hour after infection, the medium, with the compound to be tested (2 times the final concentration in medium) or without compound, was added to the flasks (5 ml; final volume 10 ml). AZT was used as a positive control.
# C. The cells were exposed to the virus (about 2×10^5 dpm/ml, as determined by reverse transcriptase assay) and then placed in a CO2 incubator. HIV-1 (strain LAV) was obtained from the Center for Disease Control, Atlanta, Ga. The methods used for culturing the PBM cells, harvesting the virus and determining the reverse transcriptase activity were those described by McDougal et al. (J. Immun. Meth. 76, 171-183, 1985) and Spira et al. (J. Clin. Meth. 25, 97-99, 1987), except that fungizone was not included in the medium (see Schinazi, et al., Antimicrob. Agents Chemother. 32, 1784-1787 (1988); Id., 34:1061-1067 (1990)).
# D. On day 6, the cells and supernatant were transferred to a 15 ml tube and centrifuged at about 900 g for 10 minutes. Five ml of supernatant were removed and the virus was concentrated by centrifugation at 40,000 rpm for 30 minutes (Beckman 70.1 Ti rotor). The solubilized virus pellet was processed for determination of the levels of reverse transcriptase. Results are expressed in dpm/ml of sampled supernatant. Virus from smaller volumes of supernatant (1 ml) can also be concentrated by centrifugation prior to solubilization and determination of reverse transcriptase levels.
# [6] = system: HBV (hepatitis B virus)
# [7] = Cytotoxicity in mitogen stimulated uninfected human PBM cells (trypan blue exclusion); type: cell-based
# Description: The cells were counted after 6 days using a hemacytometer and the trypan blue exclusion method, as described by Schinazi et al., Antimicrobial Agents and Chemotherapy, 22(3), 499 (1982).
# [8] = human PBM cells infected with HIV-1, enantiomers isolated by chiral HPLC (Example 3), read-out: EC50
structure (smiles),measurement,setting,value
"Nc1nc2c(ncn2[C@H]2C=C[C@@H](CO)O2)c(=O)[nH]1 [(+)-enantiomer of carbovir, 2′,3′-didehydro-2′,3′-dideoxyguanosine]",EC50,[1],> 60000 nM
Nc1nc(=O)n(C2CSC(COP(=O)(O)OP(=O)(O)OP(=O)(O)O)O2)cc1F (racemic) [FTC-triphosphate],Ki,[2],200 nM
same,intracellular concentration,[3],1 to 5 µM
same,half-life at 10 μM,[4],~12 h
"Nc1ncnc2c1ncn2[C@H]1CC[C@@H](CO)O1 [DDA, 2′,3′-dideoxyadenosine, reference compound]",EC50,"[5]; Human immunodeficiency virus 1, PBMC, comparison nucleosides, source not stated, read-out: EC50",910 nM
"Nc1ccn(C2CSC(CO)O2)c(=O)n1 (stereo not drawn) [BCH-189 (−), 2-hydroxymethyl-5-(cytosin-1-yl)-1,3-oxathiolane]",DPM/ml,[5]; 0.001 μM,"76,400 DPM/ml"
same,DPM/ml,[5]; 0.005 μM,"66,875 DPM/ml"
same,DPM/ml,[5]; 0.01 μM,"54,170 DPM/ml"
same,DPM/ml,[5]; 0.05 μM,"57,615 DPM/ml"
same,DPM/ml,[5]; 0.1 μM,"34,705 DPM/ml"
same,DPM/ml,[5]; 0.5 μM,"15,250 DPM/ml"
same,inhibition at 0.001 µM,"[5]; Human immunodeficiency virus 1, PBMC, 0.001 μM, read-out: % Inhibition (Corrected)",23.6%
same,inhibition at 0.005 µM,"[5]; Human immunodeficiency virus 1, PBMC, 0.005 μM, read-out: % Inhibition (Corrected)",34.2%
same,inhibition at 0.01 µM,"[5]; Human immunodeficiency virus 1, PBMC, 0.01 μM, read-out: % Inhibition (Corrected)",48.2%
same,inhibition at 0.05 µM,"[5]; Human immunodeficiency virus 1, PBMC, 0.05 μM, read-out: % Inhibition (Corrected)",44.4%
same,inhibition at 0.1 µM,"[5]; Human immunodeficiency virus 1, PBMC, 0.1 μM, read-out: % Inhibition (Corrected)",69.7%
same,inhibition at 0.5 µM,"[5]; Human immunodeficiency virus 1, PBMC, 0.5 μM, read-out: % Inhibition (Corrected)",91.2%
same,EC50,[5]; [8],16 nM
"Nc1nc(=O)n(C2CSC(CO)O2)cc1F (single isomer, unassigned; (-)) [DLS-058 (−), (−)-2-hydroxymethyl-5-(5-fluorocytosin-1-yl)-1,3-oxathiolane]",% Inhibition (Corrected),"[5]; 0.001 μM, listed as FTC (−)",23.8%
same,DPM/ml,"[5]; 0.001 μM, listed as FTC (−)","76,275 DPM/ml"
same,% Inhibition (Corrected),"[5]; 0.005 μM, listed as FTC (−)",43.3%
same,DPM/ml,"[5]; 0.005 μM, listed as FTC (−)","58,590 DPM/ml"
same,% Inhibition (Corrected),"[5]; 0.01 μM, listed as FTC (−)",24.8%
same,DPM/ml,"[5]; 0.01 μM, listed as FTC (−)","75,350 DPM/ml"
same,% Inhibition (Corrected),"[5]; 0.05 μM, listed as FTC (−)",76.2%
same,DPM/ml,"[5]; 0.05 μM, listed as FTC (−)","28,890 DPM/ml"
same,% Inhibition (Corrected),"[5]; 0.1 μM, listed as FTC (−)",93.5%
same,DPM/ml,"[5]; 0.1 μM, listed as FTC (−)","13,175 DPM/ml"
same,% Inhibition (Corrected),"[5]; 0.5 μM, listed as FTC (−)",97.6%
same,DPM/ml,"[5]; 0.5 μM, listed as FTC (−)","9,485 DPM/ml"
same,EC50,"[5]; summary range, read-out: EC50 against HIV",7.7 to 20 nM
same,activity against HBV,[6],significant activity
same,IC50 at 6 days,[7],> 100000 nM
"Nc1ccn(C2CSC(CO)O2)c(=O)n1 (stereo not drawn) [BCH-189 (+), 2-hydroxymethyl-5-(cytosin-1-yl)-1,3-oxathiolane]",DPM/ml,[5]; 0.00085 μM,"71,795 DPM/ml"
same,DPM/ml,[5]; 0.00425 μM,"99,710 DPM/ml"
same,DPM/ml,[5]; 0.0085 μM,"68,355 DPM/ml"
same,DPM/ml,[5]; 0.0415 μM,"82,845 DPM/ml"
same,DPM/ml,[5]; 0.0825 μM,"65,100 DPM/ml"
same,DPM/ml,[5]; 0.412 μM,"43,260 DPM/ml"
same,inhibition at 0.00085 µM,"[5]; Human immunodeficiency virus 1, PBMC, 0.00085 μM, read-out: % Inhibition (Corrected)",28.7%
same,inhibition at 0.00425 µM,"[5]; Human immunodeficiency virus 1, PBMC, 0.00425 μM, read-out: % Inhibition (Corrected)",-2.1%
same,inhibition at 0.0085 µM,"[5]; Human immunodeficiency virus 1, PBMC, 0.0085 μM, read-out: % Inhibition (Corrected)",32.5%
same,inhibition at 0.0415 µM,"[5]; Human immunodeficiency virus 1, PBMC, 0.0415 μM, read-out: % Inhibition (Corrected)",16.5%
same,inhibition at 0.0825 µM,"[5]; Human immunodeficiency virus 1, PBMC, 0.0825 μM, read-out: % Inhibition (Corrected)",36.1%
same,inhibition at 0.412 µM,"[5]; Human immunodeficiency virus 1, PBMC, 0.412 μM, read-out: % Inhibition (Corrected)",60.3%
same,EC50,[5]; [8],230 nM
